Data as given in patent US20070142317A1, “Topical composition for treatment of skin disorders” (QLT USA, Inc., priority 2003, published 2007).
Several values for one entry are separate records, joined by “and”; a condition that tells them apart may be missing. Identical values can stand only once. Like-named read-outs stand apart in the source and are kept apart here.

Assays:
U937 monocytoid cells [1] = assay: TUNEL assay, dAd, adenosine and adenine dose ranging (Example 24); format: cell-based; conditions: for % FITC Shift / % PI Shift: 2 days
Experimental: U937 monocytoid cells were cultured in the presence of dAd at various concentrations of dAd (0, 50, 75, 100, 250 and 1000 micromoles/liter). The cells were incubated in dAd for 2 days. At the end of the treatment period, the cells were harvested for analysis by a TUNEL assay, a flow-cytometry-based method to quantify the percentage of cells that have undergone apoptosis. The level of apoptosis expressed as “% FITC shift”. The level of cell cycle arrest is expressed as “% PI shift”. As a positive control, the cells were exposed to 5 mM camptothecin for 2 days.

Jurkat cells [2] = assay: Cytokine secretion by ELISA (Example 31); format: cell-based
Experimental: In a search for a topical agent that can locally deplete levels of T-cells in the skin, apoptotic compounds were evaluated for their mechanisms of action. The ability that […] induce apoptosis by the same mechanisms was examined by cytokine secretion. […] At the end of the treatment period, the cells were harvested and Caspase-3 induction was determined using a flow-cytometry-based method to quantify the percentage of cells that induced Caspase-3. The level of apoptosis is expressed as “% FITC shift”. Cytokine secretion (IL-2, IL-6, TNF, and IFN-γ) was measured at the same time by ELISA and is expressed in pg/mL.

Jurkat T cells = assay: TUNEL apoptosis assay, sequential exposure to dCF then dAd (Example 21); format: cell-based; conditions: Camptothecin 5 uM, positive control
Experimental: (§1) Thus, it is hypothesized that the sequential exposure of the cells to dCF, followed by deoxyadenosine (dAd) will lead to greater levels of apoptosis than dCF alone. […] The cells were then incubated in dAd for 2 more days. At the end of the treatment period, the cells were harvested for analysis by a TUNEL assay, a flow-cytometry-based method to quantify the percentage of cells that have undergone apoptosis. The level of apoptosis is expressed as “% FITC shift”. As a positive control, the cells were exposed to 5 mM camptothecin for 2 days.

U937 monocytoid cells [3] = assay: as above; format: cell-based; conditions: Camptothecin 5 uM, positive control
Experimental: as §1

U-937 cells [4] = assay: Cytokine secretion by ELISA (Example 31); format: cell-based; conditions: for effect on suppressing the production of IL-6: 46 hours
Experimental: (§2) In a search for a topical agent that can locally deplete levels of T-cells in the skin, apoptotic compounds were evaluated for their mechanisms of action. The ability that […] induce apoptosis by the same mechanisms was examined by cytokine secretion. […] Caspase-3 and cytokine (IL-2, IL-6, TNF, and IFN-γ) levels were determined and compared to controls at 23 and 46 hours. FdA was incorporated to evaluate the effect of the halogen group and Ara-C for its overlapping mechanisms of action. […] At the end of the treatment period, the cells were harvested and Caspase-3 induction was determined using a flow-cytometry-based method to quantify the percentage of cells that induced Caspase-3. The level of apoptosis is expressed as “% FITC shift”. Cytokine secretion (IL-2, IL-6, TNF, and IFN-γ) was measured at the same time by ELISA and is expressed in pg/mL. […]

U937 monocytoid cells [5] = assay: TUNEL assay, dAd added at different times after dCF wash-out (Example 22); format: cell-based; conditions: 0 μM dCF + camptothecin positive control, time after wash-out 0 hr (5 mM printed elsewhere in the source)
Experimental: At 0, 6, 24, and 48 hours, 50 μM dAd was added and the cells were incubated for an additional 2 days. At the end of the treatment period, the cells were harvested for analysis by a TUNEL assay, a flow-cytometry-based method to quantify the percentage of cells that have undergone apoptosis. The level of apoptosis is expressed as “% FITC shift”. As a positive control, the cells were exposed to 5 mM camptothecin for 2 days.

U937 monocytoid cells [6] = assay: as above; format: cell-based; conditions: 0 μM dCF + camptothecin positive control, time after wash-out 0 hr (5 mM printed elsewhere in the source); remark: listed apart in the source
U937 monocytoid cells [7] = assay: TUNEL assay, simultaneous exposure to dCF and dAd (Example 22); format: cell-based; conditions: camptothecin positive control, 2 days (5 mM printed elsewhere in the source)
Experimental: Methods Simultaneous Exposure—U937 monocytoid cells were cultured in the presence of 0, 1, 2.5, 10, 20, 50, 100, 150, 200, and 250 μM dAdo for 2 days. […] At the end of the treatment period, the cells were harvested for analysis by a TUNEL assay, a flow-cytometry-based method to quantify the percentage of cells that have undergone apoptosis. The level of apoptosis is expressed as “% FITC shift”. As a positive control, the cells were exposed to 5 mM camptothecin for 2 days.

[8] = target: T1, ribonucleotide reductase (RNR) (Homo sapiens, UniProt P23921); conditions: cited from earlier work
T1 sequence (P23921 1-792): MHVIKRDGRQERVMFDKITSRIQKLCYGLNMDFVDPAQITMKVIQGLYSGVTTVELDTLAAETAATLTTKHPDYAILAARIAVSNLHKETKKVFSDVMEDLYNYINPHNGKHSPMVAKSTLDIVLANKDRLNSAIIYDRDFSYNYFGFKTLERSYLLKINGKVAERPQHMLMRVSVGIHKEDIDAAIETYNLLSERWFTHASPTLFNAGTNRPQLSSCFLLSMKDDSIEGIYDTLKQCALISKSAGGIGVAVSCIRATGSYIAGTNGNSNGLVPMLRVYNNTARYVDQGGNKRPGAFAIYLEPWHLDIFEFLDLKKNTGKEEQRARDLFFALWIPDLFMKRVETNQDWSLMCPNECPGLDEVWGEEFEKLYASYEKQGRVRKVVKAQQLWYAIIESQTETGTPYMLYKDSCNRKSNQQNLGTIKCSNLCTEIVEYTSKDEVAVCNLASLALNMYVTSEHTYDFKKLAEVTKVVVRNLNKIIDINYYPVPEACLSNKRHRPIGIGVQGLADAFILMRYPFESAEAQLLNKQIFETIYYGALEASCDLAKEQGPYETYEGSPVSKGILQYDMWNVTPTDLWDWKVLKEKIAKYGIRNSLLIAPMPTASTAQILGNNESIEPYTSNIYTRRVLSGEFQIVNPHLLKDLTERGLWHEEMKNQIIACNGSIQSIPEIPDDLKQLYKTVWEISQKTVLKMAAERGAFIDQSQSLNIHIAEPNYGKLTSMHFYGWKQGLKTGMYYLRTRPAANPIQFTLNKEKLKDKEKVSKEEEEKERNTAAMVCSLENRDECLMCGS

dCK = dCK (Homo sapiens, UniProt P27707); conditions: read-out: Km for dCK; cited from earlier work
Sequence of dCK (P27707 whole entry, species assumed): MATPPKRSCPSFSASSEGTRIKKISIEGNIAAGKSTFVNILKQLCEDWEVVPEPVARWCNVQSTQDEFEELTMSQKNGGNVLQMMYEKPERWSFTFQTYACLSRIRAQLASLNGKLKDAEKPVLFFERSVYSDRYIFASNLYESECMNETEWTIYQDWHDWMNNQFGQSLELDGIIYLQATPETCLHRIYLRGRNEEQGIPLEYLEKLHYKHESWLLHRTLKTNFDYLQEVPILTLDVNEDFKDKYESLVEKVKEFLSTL

U-937 cells [9] = assay: Caspase-3 induction by flow cytometry (Example 31); format: cell-based; conditions: drug 1 μM, LPS-activated cells
Experimental: as §2

Jurkat cells [10] = assay: Caspase-3 induction by flow cytometry (Example 31); format: cell-based; conditions: drug 1 μM, PHA-activated cells
Experimental: as §2

[11] = systemic, deamination by CDA; cited from earlier work
ADA = ADA (Homo sapiens, UniProt P00813); conditions: cited from earlier work
Sequence of ADA (P00813 whole entry, species assumed): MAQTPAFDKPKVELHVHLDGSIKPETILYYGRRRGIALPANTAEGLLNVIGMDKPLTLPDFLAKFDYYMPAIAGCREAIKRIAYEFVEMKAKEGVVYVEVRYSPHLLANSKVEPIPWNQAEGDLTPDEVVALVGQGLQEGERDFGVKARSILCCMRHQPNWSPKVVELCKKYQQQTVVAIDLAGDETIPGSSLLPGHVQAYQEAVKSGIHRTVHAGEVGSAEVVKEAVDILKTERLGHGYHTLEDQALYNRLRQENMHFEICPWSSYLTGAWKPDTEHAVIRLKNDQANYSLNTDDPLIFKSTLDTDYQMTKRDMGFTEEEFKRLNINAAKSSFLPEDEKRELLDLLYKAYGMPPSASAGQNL

[12] = for systemic exposure per day: topical 1.0% (10 mg/g), 7% systemic absorption
Excerpt: (§3) Systemic absorption is a concern, because of the potential for serious adverse events, such as lymphopenia and renal toxicity. At oncology doses, these adverse reactions are usually minimized, but the therapeutic index is narrow. Another factor that plays a role in the safety of the formulation is the amount of product administered each day. Approximately 4 grams, 12 grams, and 40 grams of a topical formulation are estimated to cover 10%, 30%, and 100% of the body surface area.
as §3
as §3, with “Calculations of safety margins have been performed, based upon this assumption and the known toxicity profile of F-Ara-A when administered IV for oncology indications. Systemic” for “Systemic”
as §3

[13] = 23 hr, drug 5 μM, positive control
[14] = 46 hr, drug 5 μM, positive control
[15] = Camptothecin 5 uM, positive control
[16] = 23 hr, drug 1 μM, LPS-activated cells
[17] = 46 hr, drug 1 μM, LPS-activated cells

Nc1[nH]cnc2ncnc1-2 [Adenine, 1H-Purin-6-amine]
effect on apoptosis or cell cycle (U937 monocytoid cells [1]; at 1000 uM): slight hint of an effect | % FITC Shift (U937 monocytoid cells [1]; drug 50 uM, no dCF): 0.4% | % PI Shift (U937 monocytoid cells [1]; drug 50 uM, no dCF): 2.0% | % FITC Shift (U937 monocytoid cells [1]; drug 75 uM, no dCF): 0.6% | % PI Shift (U937 monocytoid cells [1]; drug 75 uM, no dCF): 2.4% | % FITC Shift (U937 monocytoid cells [1]; drug 100 uM, no dCF): 0.3% | % PI Shift (U937 monocytoid cells [1]; drug 100 uM, no dCF): 2.5% | % FITC Shift (U937 monocytoid cells [1]; drug 250 uM, no dCF): 0.7% | % PI Shift (U937 monocytoid cells [1]; drug 250 uM, no dCF): 3.4% | % FITC Shift (U937 monocytoid cells [1]; drug 1000 uM, no dCF): 2.9% | % PI Shift (U937 monocytoid cells [1]; drug 1000 uM, no dCF): 9.5% | effect on apoptosis or cell cycle (U937 monocytoid cells [1]; up to 250 uM): little or no effect

Nc1ncnc2c1ncn2[C@@H]1O[C@H](CO)[C@@H](O)[C@H]1O [Adenosine, 9-β-D-Ribofuranosyl-9H-purin-6-amine]
effect on apoptosis or cell cycle (U937 monocytoid cells [1]; at 1000 uM): slight hint of an effect | % FITC Shift (U937 monocytoid cells [1]; drug 50 uM, no dCF): 0.7% | % PI Shift (U937 monocytoid cells [1]; drug 50 uM, no dCF): 1.7% | % FITC Shift (U937 monocytoid cells [1]; drug 75 uM, no dCF): 0.6% | % PI Shift (U937 monocytoid cells [1]; drug 75 uM, no dCF): 2.1% | % FITC Shift (U937 monocytoid cells [1]; drug 100 uM, no dCF): 0.6% | % PI Shift (U937 monocytoid cells [1]; drug 100 uM, no dCF): 2.0% | % FITC Shift (U937 monocytoid cells [1]; drug 250 uM, no dCF): 0.6% | % PI Shift (U937 monocytoid cells [1]; drug 250 uM, no dCF): 1.9% | % FITC Shift (U937 monocytoid cells [1]; drug 1000 uM, no dCF): 2.9% | % PI Shift (U937 monocytoid cells [1]; drug 1000 uM, no dCF): 7.9% | effect on apoptosis or cell cycle (U937 monocytoid cells [1]; up to 250 uM): little or no effect

CC[C@@]1(O)C(=O)OCc2c1cc1n(c2=O)Cc2cc3ccccc3nc2-1 [Camptothecin]
Cytokine Secretion IL-2 pg/ml Mean of 3 Replicates (Jurkat cells [2]; [13]): 0 pg/mL | Cytokine Secretion IL-2 pg/ml Mean of 3 Replicates (Jurkat cells [2]; [14]): 0 pg/mL | % FITC Shift (Jurkat T cells): 80.2% | % FITC Shift (U937 monocytoid cells [3]): 93.4% | Cytokine Secretion IL-6 pg/ml Mean of 3 Replicates (U-937 cells [4]; [13]): 0 pg/mL | Cytokine Secretion IL-6 pg/ml Mean of 3 Replicates (U-937 cells [4]; [14]): 0 pg/mL | % FITC Shift (U937 monocytoid cells [5]): 84.3% | % PI Shift (U937 monocytoid cells [6]): 29.2% | % FITC Shift (U937 monocytoid cells [1]; [15]): 72.8% | % PI Shift (U937 monocytoid cells [1]; [15]): 32.2% | % FITC Shift (U937 monocytoid cells [7]): 79.5% | % PI Shift (U937 monocytoid cells [7]): 43.4%

Nc1nc(Cl)nc2c1ncn2[C@H]1C[C@H](O)[C@@H](COP(=O)(O)OP(=O)(O)OP(=O)(O)O)O1 [CdATP, 2-chloro-2′-deoxyadenosine-5′-triphosphate]
IC50 [8]: 0.06 µM

Nc1nc(Cl)nc2c1ncn2[C@@H]1O[C@H](CO)[C@@H](O)[C@@H]1F [Clofarabine]
Km (dCK): 5 µM

Nc1nc(F)nc2c1ncn2C1OC(COP(=O)(O)OP(=O)(O)OP(=O)(O)O)C(O)C1O (centres unmarked) [F-Ara-ATP]
IC50 [8]: ~0.6 µM

Nc1nc(F)nc2c1ncn2[C@H]1C[C@H](O)[C@@H](CO)O1 [FdA, 2-fluoro-2′-deoxyadenosine]
Cytokine Secretion IL-2 pg/ml Mean of 3 Replicates (Jurkat cells [2]; 23 hr, drug 1 μM, PHA-activated cells): 41 pg/mL | Cytokine Secretion IL-2 pg/ml Mean of 3 Replicates (Jurkat cells [2]; 46 hr, drug 1 μM, PHA-activated cells): 72 pg/mL | IL-2 concentration (Jurkat cells [2]; Jurkat cells activated by PHA, 46 hours, drug 1 μM): 72 pg/mL | Cytokine Secretion IL-6 pg/ml Mean of 3 Replicates (U-937 cells [4]; [16]): 7 pg/mL | effect on suppressing the production of IL-6 (U-937 cells [4]; drug 1 μM): little effect | Cytokine Secretion IL-6 pg/ml Mean of 3 Replicates (U-937 cells [4]; [17]): 7 pg/mL and 8 pg/mL | Caspase-3 Induction % FITC Shift - Mean of 3 Replicates (U-937 cells [9]; 23 hr): 67% | Caspase-3 Induction % FITC Shift - Mean of 3 Replicates (U-937 cells [9]; 46 hr): 51% | Caspase-3 Induction % FITC Shift - Mean of 3 Replicates (Jurkat cells [10]; 23 hr): 75% | Caspase-3 Induction % FITC Shift - Mean of 3 Replicates (Jurkat cells [10]; 46 hr): 95%

Nc1ccn([C@@H]2O[C@H](CO)[C@@H](O)C2(F)F)c(=O)n1 [Gemcitabine]
half-life [11]: 10 to 20 min

COc1nc(N)nc2c1ncn2[C@@H]1O[C@H](CO)[C@@H](O)[C@@H]1O [Nelarabine]
Km to ADA relative to that of adenosine (ADA): less than 1%

Nc1ccn([C@@H]2O[C@H](CO)[C@@H](O)[C@@H]2O)c(=O)n1 [ara-C, Cytosine 1β-D-Arabinofuranoside]
Cytokine Secretion IL-6 pg/ml Mean of 3 Replicates (U-937 cells [4]; [16]): 7 pg/mL | effect on suppressing the production of IL-6 (U-937 cells [4]; drug 1 μM): little effect | Cytokine Secretion IL-6 pg/ml Mean of 3 Replicates (U-937 cells [4]; [17]): 7 pg/mL | times safer than the oncology dose [12]: 9643 | systemic exposure per day ([12]; 10% BSA (4 grams)): 2.8 mg | systemic exposure per day ([12]; 30% BSA (12 grams)): 8.4 mg | systemic exposure per day ([12]; 100% BSA (40 grams)): 28 mg

Nc1ccn(C2OC(COP(=O)(O)OP(=O)(O)O)C(O)C2(F)F)c(=O)n1 (centres unmarked) [gemcitabine diphosphate]
IC50 [8]: 0.2 µM
